Source: patent publication US10344032B2, “Agents for treating neurogenic inflammation and neuropathic hyperalgesia related disorders” (PÉCSI TUDOMÁNYEGYETEM, priority 2014, dated 2019)

Key:
[1] = test system: rat; assay: Partial sciatic nerve ligation (Seltzer operation) mechanical hyperalgesia (Randall-Selitto test); format: in vivo; conditions: 100 μg/kg p.o., 60 min; 7 days after partial sciatic nerve ligation; Randall-Sellitto test
Protocol: Wistar rats were anaesthetised with sodium-pentobarbital (Euthasol, 50 mg/kg i.p.). The common sciatic nerve was exposed unilaterally on the right side high in the thigh and ⅓-½ of the nerve trunk was carefully separated and tightly ligated using a siliconised silk suture (Ethicone 9-0). Then the wound was closed and the animals were allowed to survive for 7 days (Seltzer et al., 1990). During this period, signs of spontaneous pain (holding the legs in elevated position), mechanical hyperalgesia and allodynia developed.
Mechanonociceptive threshold of the hindpaws was measured with analgesimetry (Randall-Sellitto test) and touch sensitivity of the plantar surface with dynamic plantar aesthesiometry on the same animals. Hyperalgesia (decrease of the mechanonociceptive threshold) and allodynia (decrease of touch sensitivity) were expressed in % compared to the initial pre-operation control values. Significant decrease of the mechanonociceptive thresholds, as well as touch sensitivity thresholds developed 7 days after the surgery (Szolcsanyi et al. 2003; Sandor et al. 2006). […]
b) The mechanonociceptive thresholds of the hindpaw was measured with the Ugo Basile Analgesimeter (7210, Comerio, Italy; Randall-Selitto test). […] The threshold force which elicited withdrawal was read on an analog scale calibrated in grams. […]

[2] = test system: rat; assay: Plantar incision-induced mechanical allodynia (dynamic plantar aesthesiometer), postoperative pain model; format: in vivo; conditions: 100 μg/kg p.o., measured 60 min later; one day after plantar incision; dynamic plantar aesthesiometry
Protocol: Rats were anaesthesized with sodium-pentobarbital (Euthasol, 40 mg/kg i.p.) and a 1 cm longitudinal incision was made through the skin, fascia and muscle of the plantar aspect of the hindpaw. Significant decrease of both the thermonociceptive and mechanonociceptive thresholds (heat and mechanical allodynia) of the paw develops 1 day after this procedure.
One hundred and forty five (145) female Wistar rats (150-250 g) kept in the Animal House of the University of Pecs in a temperature-controlled room provided with a 12-hour light-dark cycle, standard rat chow and water ad libitum were used in this experimental series. They were brought to the air-conditioned laboratory the day before the experiment started. Throughout the total study the same assistant handled all the animals. […] Touch sensitivity was measured with a dynamic plantar aesthesiometer (DPA) and the thermonociceptive threshold was determined with an increasing temperature water-bath (ITWB) on the same rats (see below). […] Test compounds were administered p.o. and post-dose touch sensitivity and thermonociceptive thresholds were measured 60 min later. […]
a) Touch sensitivity of the plantar surface of the paw was measured with the Ugo Basile Dynamic Plantar Aesthesiometer (DPA; 37400, Comerio, Italy), which is an electronic von Frey device. […]

[3] = target: T1, sst4 receptor (Homo sapiens, UniProt P31391); assay: Somatostatin sst4 receptor-coupled G-protein activation assay ([35S]GTPγS binding); format: biochemical; conditions: 100 nM concentration; membrane fractions of CHO cells stably expressing the sst4 receptor; percentage over specific binding in absence of agonists
T1 construct: expressed in transfected cells
Text: [^35S]GTPγS binding assay is a functional test determining agonist-induced and receptor-mediated G-protein activation which is based on the increase in guanine nucleotide exchange at G-proteins upon agonist stimulation. The interaction of a G protein-coupled receptor (GPCR) with the G protein is the first step in the transduction of the receptor binding signal to the activation of the second-messenger systems. We measured the level of [^35S]-GTPγS bound to the α subunit of G proteins and determined the efficacy of the compounds. Compounds which elicited 200% [^35S]GTPγS binding in nanomolar concentration were considered effective agonist. The examined compounds were added into the medium in 1 nM, 10 nM, 100 nM 1 μM and 10 μM concentrations.
Membrane fractions were prepared from CHO cells stably expressing the sst4 receptor in Tris-EGTA buffer (50 mM Tris-HCl, 1 mM EGTA, 3 mM MgCl2, 100 mM NaCl, pH 7.4). These membrane fractions (˜10 μg of protein/sample) were incubated at 30° C. for 60 min in the same Tris-EGTA buffer containing [^35S]GTPγS (0.05 nM) and increasing concentrations (10^−9 to 10^−5 M) of test compounds in the presence of 30 μM GDP in a final volume of 500 μl. Non-specific binding was determined in the presence of 10 μM unlabelled GTPγS. Total binding was measured in the absence of test compounds. To calculate the specific binding, non-specific binding was subtracted from total binding. The reaction was terminated by filtrating the samples through Whatman GF/B glass fiber filters. Using 48-well Slot Blot Manifold from Cleaver Scientific filters were washed three times with ice-cold 50 mM Tris-HCl buffer (pH 7.4). After drying for 60 min at 37° C., radioactivity was measured in scintillation liquid in a Packard Tri-Carb 2800 TR scintillation counter. Test compound-induced G-protein stimulation was given as percentage over the specific [^35S]GTPγS binding observed in the absence of agonists.

[4] = test system: sensory nerve terminals of isolated rat tracheae; assay: Electrical field stimulation-induced release of CGRP from sensory nerve terminals of isolated rat tracheae; conditions: 500 nM; absolute release = stimulated + post-stimulated fractions minus basal release
Protocol: Rats were exsanguinated in deep anaesthesia (sodium thiopental, 50 mg/kg i.p.), then the whole trachea was removed and cleaned of fat and adhering connective tissues. Tracheae from two rats were placed into the same 1.8 ml organ bath to obtain sufficient amount of released peptide and perfused (1 ml/min) with pH—(7.2) controlled oxygenized Krebs solution for 60 minutes (equilibration period) at 37° C. temperature. After discontinuation of the flow, the solution was changed three times for 8 minutes to produce pre-stimulated, stimulated, post-stimulated fractions. Electrical field stimulation (40 V, 0.1 ms, 10 Hz for 120 s; 1200 pulses) was performed to elicit neurotransmitter release at the beginning of the second 8-minute period. […]
CGRP concentration was determined from 400-400 μl samples of the organ bath solutions by means of a selective and sensitive radioimmunoassay method developed in our laboratories and described in details in several previous papers (Nemeth et al. 1998, 1999, 2006; Helyes et al., 1997, 2001, 2006; Borzsei et al., 2008). The released amount of the peptides was calculated as fmol peptide per mg wet tissue (trachea). The absolute EFS-induced CGRP outflow in each experiment was calculated by taking off the basal release measured in the first (pre-stimulated) fraction from the second and third 8-min fractions and then adding these values. […]

T1 sequence (P31391 whole entry): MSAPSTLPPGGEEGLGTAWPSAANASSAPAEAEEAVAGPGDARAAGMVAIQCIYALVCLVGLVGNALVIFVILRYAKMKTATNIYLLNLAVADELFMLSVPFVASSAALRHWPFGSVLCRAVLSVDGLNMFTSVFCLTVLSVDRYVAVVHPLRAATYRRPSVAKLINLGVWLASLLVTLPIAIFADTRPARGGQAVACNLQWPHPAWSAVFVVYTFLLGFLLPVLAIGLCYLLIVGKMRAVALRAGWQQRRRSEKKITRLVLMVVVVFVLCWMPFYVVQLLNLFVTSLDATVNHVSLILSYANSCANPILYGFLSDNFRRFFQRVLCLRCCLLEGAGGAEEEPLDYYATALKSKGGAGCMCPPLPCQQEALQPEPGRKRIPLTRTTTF

SMILES	melting point [°C]	[35S]GTPγS binding (G-protein activation) [3] [%]	reduction of mechanical hyperalgesia [1] [%]	decrease of mechanical allodynia [2] [%]	inhibition on the absolute CGRP release [4] [%]
Cc1c(C)n(Cc2ccccc2)c2ncnc(NCCc3ccc(O)cc3)c12 [Example 4, 4-[2-(7-Benzyl-5,6-dimethyl-7H-pyrrolo[2,3-d]pyrimidin-4-ylamino)-ethyl]-phenol]	198 to 199	–	46	–	–
COc1ccc(CCNc2ncnc3c2c(C)c(C)n3Cc2ccccc2)cc1 [Example 2, (7-Benzyl-5,6-dimethyl-7H-pyrrolo[2,3-d]pyrimidin-4-yl)-[2-(4-methoxy-phenyl)-ethyl]-amine]	100 to 101.9	245.67	–	–	72.5
CC(=O)Nc1ccc(CCNc2ncnc3c2c(C)c(C)n3CCCN(C)C)cc1 [Example 51, N-(4-{2-[7-(3-Dimethylamino-propyl)-5,6-dimethyl-7H-pyrrolo[2,3-d]pyrimidin-4-ylamino]-ethyl}-phenyl)-acetamide]	132.7 to 133.7	–	–	63	79.55

Second part, led by results:

melting point [°C]	[35S]GTPγS binding (G-protein activation) [3] [%]	SMILES	reduction of mechanical hyperalgesia [1] [%]	decrease of mechanical allodynia [2] [%]	inhibition on the absolute CGRP release [4] [%]
208.7 to 209.2	194.5	Cc1c(C)n(Cc2ccccc2)c2ncnc(NCCc3cccc(O)c3)c12 [Example 58, 3-[2-(7-Benzyl-5,6-dimethyl-7H-pyrrolo[2,3-d]pyrimidin-4-ylamino)-ethyl]-phenol]	–	64.7	–
205 to 207	–	Cc1c(C)n(Cc2ccccc2)c2ncnc(NCCc3cccc(Cl)c3)c12 [Example 39, (7-Benzyl-5,6-dimethyl-7H-pyrrolo[2,3-d]pyrimidin-4-yl)-[2-(3-chloro-phenyl)-ethyl]-amine]	31	–	–
